Measured values: patent US10023570B2 (Array BioPharma, Inc., priority 2015, dated 2018)

Target: human KDR protein in HEK-293 cells (Homo sapiens (Human), UniProt P35968)
Test: KDR Cell Assay (phospho-KDR in HEK-293 cells expressing inducible KDR)
Type: cell-based
Conditions: pKDR Cell HEK 10% FBS IC50, HEK-293 cells expressing inducible KDR, VEGF stimulated
Outline: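 HEK-293 cells with inducible human KDR were treated with compound for 1 h in DMEM (0.25% DMSO final), then lysed. Phospho-KDR was quantified by Meso Scale immunoassay, expressed as percent of control, and IC50 taken where a 4-parameter logistic fit crossed 50 POC.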

Sequence of human KDR protein in HEK-293 cells (P35968 20-1356): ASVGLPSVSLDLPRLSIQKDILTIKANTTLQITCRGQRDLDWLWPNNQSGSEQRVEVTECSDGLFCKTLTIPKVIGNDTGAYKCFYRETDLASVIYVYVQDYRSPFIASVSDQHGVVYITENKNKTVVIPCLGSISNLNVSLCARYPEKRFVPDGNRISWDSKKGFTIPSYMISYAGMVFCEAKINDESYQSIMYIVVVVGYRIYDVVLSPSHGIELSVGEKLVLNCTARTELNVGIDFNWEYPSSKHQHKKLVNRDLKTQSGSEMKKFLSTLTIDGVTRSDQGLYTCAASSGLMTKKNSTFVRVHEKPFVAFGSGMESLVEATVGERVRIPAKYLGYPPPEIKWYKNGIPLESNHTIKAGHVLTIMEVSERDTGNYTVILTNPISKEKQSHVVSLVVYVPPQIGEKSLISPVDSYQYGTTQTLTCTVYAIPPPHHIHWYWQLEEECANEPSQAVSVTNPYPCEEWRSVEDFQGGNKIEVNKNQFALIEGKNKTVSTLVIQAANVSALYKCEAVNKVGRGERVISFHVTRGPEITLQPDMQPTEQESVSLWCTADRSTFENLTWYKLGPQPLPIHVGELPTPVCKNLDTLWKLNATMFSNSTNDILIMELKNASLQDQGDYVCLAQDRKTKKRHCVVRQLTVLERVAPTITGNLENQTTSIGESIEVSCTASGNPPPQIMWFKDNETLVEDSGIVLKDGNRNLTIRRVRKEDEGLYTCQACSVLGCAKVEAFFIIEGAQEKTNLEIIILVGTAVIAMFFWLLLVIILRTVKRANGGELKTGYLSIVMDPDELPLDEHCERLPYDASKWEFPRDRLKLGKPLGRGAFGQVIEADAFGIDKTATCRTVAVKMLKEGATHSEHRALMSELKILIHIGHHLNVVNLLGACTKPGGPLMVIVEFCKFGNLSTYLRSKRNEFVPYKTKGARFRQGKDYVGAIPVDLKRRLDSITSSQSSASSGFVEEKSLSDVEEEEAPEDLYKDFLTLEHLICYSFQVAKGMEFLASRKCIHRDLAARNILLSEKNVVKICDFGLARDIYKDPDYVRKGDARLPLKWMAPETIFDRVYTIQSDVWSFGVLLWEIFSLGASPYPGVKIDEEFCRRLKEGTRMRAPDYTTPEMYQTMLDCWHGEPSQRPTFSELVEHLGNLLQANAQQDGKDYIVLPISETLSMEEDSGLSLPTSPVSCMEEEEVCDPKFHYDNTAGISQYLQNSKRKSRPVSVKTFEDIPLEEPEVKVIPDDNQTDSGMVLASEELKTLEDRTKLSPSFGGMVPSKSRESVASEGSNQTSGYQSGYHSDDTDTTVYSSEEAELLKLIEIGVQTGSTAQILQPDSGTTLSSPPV

| SMILES | IC50 [µM] |
| --- | --- |
| Cn1cc(-c2cc(-c3ccc(N4CCC5(CC4)CN(C(=O)C4CC4)C5)nc3)c3c(C#N)cnn3c2)cn1 [Example 492, 4-(6-(2-(cyclopropanecarbonyl)-2,7-diazaspiro[3.5]nonan-7-yl)pyridin-3-yl)-6-(1-methyl-1H-pyrazol-4-yl)pyrazolo[1,5-a]pyridine-3-carbonitrile] | 0.563 |
| Cn1cc(-c2cc(-c3ccc(N4CCN(C(=O)N5CC[C@@H](c6ccccc6)C5)CC4)nc3)c3c(C#N)cnn3c2)cn1 [Example 375, (S)-6-(1-methyl-1H-pyrazol-4-yl)-4-(6-(4-(3-phenylpyrrolidine-1-carbonyl)piperazin-1-yl)pyridin-3-yl)pyrazolo[1,5-a]pyridine-3-carbonitrile] | 0.841 |
| Cn1cc(-c2cc(-c3ccc(N4CCC(Cc5ccccc5)CC4)nc3)c3c(C#N)cnn3c2)cn1 [Example 535, 4-(6-(4-benzylpiperidin-l-yl)pyridin-3-yl)-6-(1-methyl-1H-pyrazol-4-yl)pyrazolo[1,5-a]pyridine-3-carbonitrile] | 0.374 |
| Cn1cc(-c2cc(-c3ccc(N4CCC5(CC4)CN(C(=O)N4CCCC4)C5)nc3)c3c(C#N)cnn3c2)cn1 [Example 500, 6-(1-methyl-1H-pyrazol-4-yl)-4-(6-(2-(pyrrolidine-1-carbonyl)-2,7-diazaspiro[3.5]nonan-7-yl)pyridin-3-yl)pyrazolo[1,5-a]pyridine-3-carbonitrile] | 0.458 |
| Cn1ccc(-c2cc(-c3ccc(N4CCN(Cc5ccccn5)CC4)nc3)c3c(C#N)cnn3c2)n1 [Example 588, 6-(1-methyl-1H-pyrazol-3-yl)-4-(6-(4-(pyridine-2-ylmethyl)piperazin-1-yl)pyridin-3-yl)pyrazolo[1,5-a]pyridine-3-carbonitrile] | ≥ 5 |
| Cn1cc(-c2cc(-c3ccc(N4CCN(CC(F)F)CC4)nc3)c3c(C#N)cnn3c2)cn1 [Example 418, 4-(6-(4-(2,2-difluoroethyl)piperazin-1-yl)pyridin-3-yl)-6-(1-methyl-1H-pyrazol-4-yl)pyrazolo[1,5-a]pyridine-3-carbonitrile] | 1.51 |
| Cn1cc(-c2cc(-c3ccc(N4CCN(CC5CCOCC5)CC4)nc3)c3c(C#N)cnn3c2)cn1 [Example 466, 6-(1-methyl-1H-pyrazol-4-yl)-4-(6-(4-((tetrahydro-2H-pyran-4-yl)methyl)piperazin-l-yl)pyridin-3-yl)pyrazolo[1,5-a]pyridine-3-carbonitrile] | 2.16 |

More lines, now with the values ahead:

| IC50 [µM] | SMILES |
| --- | --- |
| 1.49 | COc1ccc(Cn2cc(-c3cc(-c4ccc(N5CCNCC5)nc4)c4c(C#N)cnn4c3)cn2)cc1 [Example 590, 6-(1-(4-methoxybenzyl)-1H-pyrazol-4-yl)-4-(6-(piperazin-1-yl)pyridin-3-yl)pyrazolo[1,5-a]pyridine-3-carbonitrile] |
| 0.639 | COc1ccc(N(C)C(=O)N2CCN(c3ccc(-c4cc(-c5cnn(C)c5)cn5ncc(C#N)c45)cn3)CC2)cc1 [Example 383, 4-(5-(3-cyano-6-(1-methyl-1H-pyrazol-4-yl)pyrazolo[1,5-a]pyridine-4-yl)pyridin-2-yl)-N-(4-methoxyphenyl)-N-methylpiperazine-1-carboxamide] |

Same assay, conditions: pKDR Cell HEK 10% FBS IC50, HEK-293 cells expressing inducible KDR, VEGF stimulated, 10% FBS

| SMILES | IC50 [µM] |
| --- | --- |
| Cn1cc(-c2cc(-c3ccc(N4CCN(C(=O)[C@H]5CC[C@@H](O)C5)CC4)nc3)c3c(C#N)cnn3c2)cn1 [Example 12, 4-(6-(4-((1S,3R)-3-hydroxycyclopentane-1-carbonyl)piperazin-1-yl)pyridin-3-yl)-6-(1-methyl-1H-pyrazol-4-yl)pyrazolo[1,5-a]pyridine-3-carbonitrile] | 1.19 |
| Cn1cc(-c2cc(-c3ccc(N4CCN(C(=O)N5CCCC(F)C5)CC4)nc3)c3c(C#N)cnn3c2)cn1 (stereo not shown) [Example 116, 4-(6-(4-(3-fluoropiperidine-1-carbonyl)piperazin-1-yl)pyridin-3-yl)-6-(1-methyl-1H-pyrazol-4-yl)pyrazolo[1,5-a]pyridine-3-carbonitrile] | 2.27 |
| Cn1cc(-c2cc(-c3ccc(N4CCC(C(=O)NC5CC(F)(F)C5)CC4)nc3)c3c(C#N)cnn3c2)cn1 [Example 238, 1-(5-(3-cyano-6-(1-methyl-1H-pyrazol-4-yl)pyrazolo[1,5-a]pyridin-4-yl)pyridin-2-yl)-N-(3,3-difluorocyclobutyl) piperidine-4-carboxamide] | 0.42 |
| Cn1cc(-c2cc(-c3ccc(N4CCN(C(=O)Cc5ccc(F)cn5)CC4)nc3)c3c(C#N)cnn3c2)cn1 [Example 360, 4-(6-(4-(2-(5-fluoropyridin-2-yl)acetyl)piperazin-1-yl)pyridin-3-yl)-6-(1-methyl-1H-pyrazol-4-yl)pyrazolo[1,5-a]pyridine-3-carbonitrile bis(2,2,2-trifluoroacetate)] | 0.385 |
| CC(C)C(=O)N1CC2(CCN(c3ccc(-c4cc(-c5cnn(C)c5)cn5ncc(C#N)c45)cn3)CC2)C1 [Example 221, 4-(6-(2-isobutyryl-2,7-diazaspiro[3.5]nonan-7-yl)pyridin-3-yl)-6-(1-methyl-1H-pyrazol-4-yl)pyrazolo[1,5-a]pyridine-3-carbonitrile] | 1.66 |
| Cn1cc(-c2cc(-c3ccc(N4CCN(C(=O)N5CCCCC5)CC4)nc3)c3c(C#N)cnn3c2)cn1 [Example 93, 6-(1-methyl-1H-pyrazol-4-yl)-4-(6-(4-(piperidine-1-carbonyl)piperazin-1-yl)pyridin-3-yl)pyrazolo[1,5-a]pyridine-3-carbonitrile] | 1.7 |
| CC(C)C(=O)N1CCC2(CCN(c3ccc(-c4cc(-c5cnn(C)c5)cn5ncc(C#N)c45)cn3)CC2)C1 [Example 207, 4-(6-(2-isobutyryl-2,8-diazaspiro[4.5]decan-8-yl)pyridin-3-yl)-6-(1-methyl-1H-pyrazol-4-yl)pyrazolo[1,5-a]pyridine-3-carbonitrile] | 1.96 |
| Cn1cc(-c2cc(-c3ccc(N4CCN(C(=O)N5CCC[C@H]5C(F)(F)F)CC4)nc3)c3c(C#N)cnn3c2)cn1 [Example 113, (S)-6-(1-methyl-1H-pyrazol-4-yl)-4-(6-(4-(2-(trifluoromethyl)pyrrolidine-1-carbonyl)piperazin-1-yl)pyridin-3-yl)pyrazolo[1,5-a]pyridine-3-carbonitrile] | 0.654 |
| Cn1cc(-c2cc(-c3ccc(N4CCN(C(=O)[C@H](O)c5ccccc5)CC4)nc3)c3ccnn3c2)cn1 [Example 313, (R)-2-hydroxy-1-(4-(5-(6-(1-methyl-1H-pyrazol-4-yl)pyrazolo[1,5-a]pyridin-4-yl)pyridin-2-yl)piperazin-1-yl)-2-phenylethanone] | ≥ 5 |
| Cn1cnc(C(=O)N2CCN(c3ccc(-c4cc(-c5cnn(C)c5)cn5ncc(C#N)c45)cn3)CC2)c1 [Example 36, 4-(6-(4-(1-methyl-1H-imidazole-4-carbonyl)piperazin-1-yl)pyridin-3-yl)-6-(1-methyl-1H-pyrazol-4-yl)pyrazolo[1,5-a]pyridine-3-carbonitrile bis(2,2,2-trifluoroacetate)] | 0.212 |
| Cn1cc(-c2cc(-c3ccc(N4CCN(C(=O)[C@H](O)c5ccccc5Cl)CC4)nc3)c3ccnn3c2)cn1 [Example 320, (R)-2-(2-chlorophenyl)-2-hydroxy-1-(4-(5-(6-(1-methyl-1H-pyrazol-4-yl)pyrazolo[1,5-a]pyridin-4-yl)pyridin-2-yl)piperazin-1-yl)ethanone] | ≥ 5 |

Further lines, results first:

| IC50 [µM] | SMILES |
| --- | --- |
| 0.439 | Cn1cc(-c2cc(-c3ccc(N4CCN(C(=O)[C@H]5CCCO5)CC4)nc3)c3c(C#N)cnn3c2)cn1 [Example 58, (R)-6-(1-methyl-1H-pyrazol-4-yl)-4-(6-(4-(tetrahydrofuran-2-carbonyl)piperazin-1-yl)pyridin-3-yl)pyrazolo[1,5-a]pyridine-3-carbonitrile] |
| 0.651 | Cn1cc(-c2cc(-c3ccc(N4CCN(C(=O)C5(c6ccccc6)CCC5)CC4)nc3)c3c(C#N)cnn3c2)cn1 [Example 27, 6-(1-methyl-1H-pyrazol-4-yl)-4-(6-(4-(1-phenylcyclobutane-1-carbonyl)piperazin-1-yl)pyridin-3-yl)pyrazolo[1,5-a]pyridine-3-carbonitrile] |
| 0.546 | Cc1ccc(CC(=O)N2CCN(c3ccc(-c4cc(-c5cnn(C)c5)cn5ncc(C#N)c45)cn3)CC2)cn1 [Example 19, 6-(1-methyl-1H-pyrazol-4-yl)-4-(6-(4-(2-(6-methylpyridin-3-yl)acetyl)piperazin-1-yl)pyridin-3-yl)pyrazolo[1,5-a]pyridine-3-carbonitrile] |
| 1.65 | Cn1cc(-c2cc(-c3ccc(N4CCN(C(=O)Cc5ccnn5C)CC4)nc3)c3c(C#N)cnn3c2)cn1 [Example 20, 6-(1-methyl-1H-pyrazol-4-yl)-4-(6-(4-(2-(1-methyl-1H-pyrazol-5-yl)acetyl)piperazin-1-yl)pyridin-3-yl)pyrazolo[1,5-a]pyridine-3-carbonitrile] |
| 0.643 | C[C@H](C(=O)N1CCN(c2ccc(-c3cc(-c4cnn(C)c4)cn4ncc(C#N)c34)cn2)CC1)c1ccccc1 [Example 15, (S)-6-(1-methyl-1H-pyrazol-4-yl)-4-(6-(4-(2-phenylpropanoyl)piperazin-1-yl)pyridin-3-yl)pyrazolo[1,5-a]pyridine-3-carbonitrile] |
| 0.0912 | Cn1cc(-c2cc(-c3ccc(N4CCN(C(=O)[C@H](O)c5ccccc5)CC4)nc3)c3c(C#N)cnn3c2)cn1 [Example 82, (R)-4-(6-(4-(2-hydroxy-2-phenylacetyl)piperazin-1-yl)pyridin-3-yl)-6-(1-methyl-1H-pyrazol-4-yl)pyrazolo[1,5-a]pyridine-3-carbonitrile] |
| 0.605 | Cn1cc(-c2cc(-c3ccc(N4CCN(C(=O)CC5CC5)CC4)nc3)c3c(C#N)cnn3c2)cn1 [Example 77, 4-(6-(4-(2-cyclopropylacetyl)piperazin-1-yl)pyridin-3-yl)-6-(1-methyl-1H-pyrazol-4-yl)pyrazolo[1,5-a]pyridine-3-carbonitrile] |
| 0.0806 | Cn1cc(-c2cc(-c3ccc(N4CCN(C(=O)Cc5ccccc5)CC4)nc3)c3c(C#N)cnn3c2)cn1 [Example 78, 6-(1-methyl-1H-pyrazol-4-yl)-4-(6-(4-(2-phenylacetyl)piperazin-1-yl)pyridin-3-yl)pyrazolo[1,5-a]pyridine-3-carbonitrile] |
